Data published in ChEMBL document CHEMBL5465560, “Selectivity Literature for EUbOPEN Chemogenomic Library” (2024).

What was measured:
[1] = target: T1, Testis-specific serine/threonine-protein kinase 1 (Homo sapiens) (UniProt Q9BXA7); assay: Selectivity interaction (KinomeScan (DiscoverX)) EUB0001049a TSSK1B; settings: at 1 µM
T1 sequence (whole entry): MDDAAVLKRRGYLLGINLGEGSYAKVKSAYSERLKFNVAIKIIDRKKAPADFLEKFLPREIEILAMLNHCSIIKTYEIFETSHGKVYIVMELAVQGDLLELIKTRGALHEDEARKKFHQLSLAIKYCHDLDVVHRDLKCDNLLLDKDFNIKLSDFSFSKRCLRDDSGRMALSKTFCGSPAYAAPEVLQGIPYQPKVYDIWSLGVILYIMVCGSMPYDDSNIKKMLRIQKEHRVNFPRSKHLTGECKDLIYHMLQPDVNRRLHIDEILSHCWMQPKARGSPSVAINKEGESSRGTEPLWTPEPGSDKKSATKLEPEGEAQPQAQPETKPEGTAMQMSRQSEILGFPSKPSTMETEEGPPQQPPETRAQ

[2] = target: Vascular endothelial growth factor receptor 3 (Homo sapiens, UniProt P35916); assay: Selectivity interaction (Kinase panel (Z-LYTE Assay)) EUB0001632a FLT4; settings: at 10 µM
Vascular endothelial growth factor receptor 3, sequence (P35916 whole entry): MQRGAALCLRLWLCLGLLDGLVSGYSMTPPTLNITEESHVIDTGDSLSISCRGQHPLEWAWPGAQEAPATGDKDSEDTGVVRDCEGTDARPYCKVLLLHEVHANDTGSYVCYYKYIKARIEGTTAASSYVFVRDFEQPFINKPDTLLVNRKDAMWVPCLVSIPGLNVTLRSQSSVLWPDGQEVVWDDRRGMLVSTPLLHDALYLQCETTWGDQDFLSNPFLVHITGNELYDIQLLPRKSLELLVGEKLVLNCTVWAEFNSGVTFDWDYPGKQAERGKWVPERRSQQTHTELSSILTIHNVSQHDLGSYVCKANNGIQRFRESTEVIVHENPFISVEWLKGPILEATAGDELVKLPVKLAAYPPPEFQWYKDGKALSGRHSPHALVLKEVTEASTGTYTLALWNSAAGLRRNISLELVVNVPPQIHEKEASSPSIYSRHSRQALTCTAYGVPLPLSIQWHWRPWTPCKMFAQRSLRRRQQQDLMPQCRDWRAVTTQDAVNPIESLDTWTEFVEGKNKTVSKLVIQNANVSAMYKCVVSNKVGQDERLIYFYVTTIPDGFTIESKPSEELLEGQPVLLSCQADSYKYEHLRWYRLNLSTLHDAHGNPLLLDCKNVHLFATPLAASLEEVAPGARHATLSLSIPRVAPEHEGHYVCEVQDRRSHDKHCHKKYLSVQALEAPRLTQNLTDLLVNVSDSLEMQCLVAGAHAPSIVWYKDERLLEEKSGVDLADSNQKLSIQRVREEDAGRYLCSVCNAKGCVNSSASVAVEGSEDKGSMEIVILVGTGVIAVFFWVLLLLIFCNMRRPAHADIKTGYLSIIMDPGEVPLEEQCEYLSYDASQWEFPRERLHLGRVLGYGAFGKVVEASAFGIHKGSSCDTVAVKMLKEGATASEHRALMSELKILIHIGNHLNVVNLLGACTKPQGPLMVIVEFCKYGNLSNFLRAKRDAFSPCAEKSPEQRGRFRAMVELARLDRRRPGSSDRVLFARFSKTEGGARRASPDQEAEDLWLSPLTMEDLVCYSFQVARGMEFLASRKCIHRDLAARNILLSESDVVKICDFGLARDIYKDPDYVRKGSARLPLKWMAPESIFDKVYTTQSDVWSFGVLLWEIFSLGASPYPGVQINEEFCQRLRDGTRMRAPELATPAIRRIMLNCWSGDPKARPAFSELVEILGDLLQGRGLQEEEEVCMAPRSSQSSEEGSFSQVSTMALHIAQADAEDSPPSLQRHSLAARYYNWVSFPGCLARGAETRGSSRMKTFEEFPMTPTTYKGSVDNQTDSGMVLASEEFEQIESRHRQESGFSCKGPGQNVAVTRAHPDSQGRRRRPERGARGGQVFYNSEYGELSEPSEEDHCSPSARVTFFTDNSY

[3] = target: Proto-oncogene tyrosine-protein kinase receptor Ret (Homo sapiens, UniProt P07949); assay: (§1) Selectivity interaction (KinomeScan (DiscoverX)) EUB0000045b RET
Proto-oncogene tyrosine-protein kinase receptor Ret, sequence (P07949 whole entry): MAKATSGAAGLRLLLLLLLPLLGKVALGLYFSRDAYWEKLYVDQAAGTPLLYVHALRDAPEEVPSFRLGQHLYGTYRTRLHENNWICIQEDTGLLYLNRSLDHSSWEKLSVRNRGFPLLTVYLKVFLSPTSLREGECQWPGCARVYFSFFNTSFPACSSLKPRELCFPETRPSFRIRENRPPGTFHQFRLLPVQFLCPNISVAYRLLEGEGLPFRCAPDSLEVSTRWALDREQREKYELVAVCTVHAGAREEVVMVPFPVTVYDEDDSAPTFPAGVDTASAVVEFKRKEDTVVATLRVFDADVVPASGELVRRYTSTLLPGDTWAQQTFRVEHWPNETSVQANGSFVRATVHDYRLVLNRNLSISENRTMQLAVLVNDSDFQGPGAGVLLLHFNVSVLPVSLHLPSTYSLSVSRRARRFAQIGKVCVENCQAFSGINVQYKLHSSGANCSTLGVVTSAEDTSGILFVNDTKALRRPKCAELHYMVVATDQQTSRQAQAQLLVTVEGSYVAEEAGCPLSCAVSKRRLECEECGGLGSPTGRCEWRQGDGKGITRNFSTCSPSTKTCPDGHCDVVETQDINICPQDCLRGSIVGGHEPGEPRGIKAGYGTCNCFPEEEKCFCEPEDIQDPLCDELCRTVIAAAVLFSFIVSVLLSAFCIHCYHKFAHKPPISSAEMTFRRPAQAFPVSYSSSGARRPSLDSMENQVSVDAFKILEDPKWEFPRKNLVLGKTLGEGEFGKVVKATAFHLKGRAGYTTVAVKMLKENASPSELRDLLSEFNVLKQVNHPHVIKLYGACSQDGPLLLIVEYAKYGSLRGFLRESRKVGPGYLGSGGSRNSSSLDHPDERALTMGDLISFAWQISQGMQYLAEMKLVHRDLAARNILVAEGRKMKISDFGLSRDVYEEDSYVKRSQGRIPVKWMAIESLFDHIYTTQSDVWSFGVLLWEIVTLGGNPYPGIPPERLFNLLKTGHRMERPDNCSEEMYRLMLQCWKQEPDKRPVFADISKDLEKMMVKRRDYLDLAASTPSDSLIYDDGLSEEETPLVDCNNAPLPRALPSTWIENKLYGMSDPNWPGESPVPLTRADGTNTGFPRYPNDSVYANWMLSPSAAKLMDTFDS

[4] = system: Proto-oncogene tyrosine-protein kinase receptor Ret (Homo sapiens), P07949 [V804L]; assay: as §1
Proto-oncogene tyrosine-protein kinase receptor Ret (Homo sapiens), P07949 [V804L], sequence (P07949 whole entry V804L): as the sequence (P07949 whole entry) above, with V804L counted along it

[5] = system: Proto-oncogene tyrosine-protein kinase receptor Ret (Homo sapiens), P07949 [V804M]; assay: as §1
Proto-oncogene tyrosine-protein kinase receptor Ret (Homo sapiens), P07949 [V804M], sequence (P07949 whole entry V804M): as the sequence (P07949 whole entry) above, with V804M counted along it

[6] = system: Proto-oncogene tyrosine-protein kinase receptor Ret (Homo sapiens), P07949 [M918T]; assay: as §1
Proto-oncogene tyrosine-protein kinase receptor Ret (Homo sapiens), P07949 [M918T], sequence (P07949 whole entry M918T): as the sequence (P07949 whole entry) above, with M918T counted along it

[7] = system: Epidermal growth factor receptor (Homo sapiens), P00533 [UNDEFINED MUTATION]; assay: Selectivity interaction (KinomeScan (DiscoverX)) EUB0000045b EGFR; settings: at 10 µM
Epidermal growth factor receptor (Homo sapiens), P00533 [UNDEFINED MUTATION], sequence (P00533 whole entry, looked up, change not shown): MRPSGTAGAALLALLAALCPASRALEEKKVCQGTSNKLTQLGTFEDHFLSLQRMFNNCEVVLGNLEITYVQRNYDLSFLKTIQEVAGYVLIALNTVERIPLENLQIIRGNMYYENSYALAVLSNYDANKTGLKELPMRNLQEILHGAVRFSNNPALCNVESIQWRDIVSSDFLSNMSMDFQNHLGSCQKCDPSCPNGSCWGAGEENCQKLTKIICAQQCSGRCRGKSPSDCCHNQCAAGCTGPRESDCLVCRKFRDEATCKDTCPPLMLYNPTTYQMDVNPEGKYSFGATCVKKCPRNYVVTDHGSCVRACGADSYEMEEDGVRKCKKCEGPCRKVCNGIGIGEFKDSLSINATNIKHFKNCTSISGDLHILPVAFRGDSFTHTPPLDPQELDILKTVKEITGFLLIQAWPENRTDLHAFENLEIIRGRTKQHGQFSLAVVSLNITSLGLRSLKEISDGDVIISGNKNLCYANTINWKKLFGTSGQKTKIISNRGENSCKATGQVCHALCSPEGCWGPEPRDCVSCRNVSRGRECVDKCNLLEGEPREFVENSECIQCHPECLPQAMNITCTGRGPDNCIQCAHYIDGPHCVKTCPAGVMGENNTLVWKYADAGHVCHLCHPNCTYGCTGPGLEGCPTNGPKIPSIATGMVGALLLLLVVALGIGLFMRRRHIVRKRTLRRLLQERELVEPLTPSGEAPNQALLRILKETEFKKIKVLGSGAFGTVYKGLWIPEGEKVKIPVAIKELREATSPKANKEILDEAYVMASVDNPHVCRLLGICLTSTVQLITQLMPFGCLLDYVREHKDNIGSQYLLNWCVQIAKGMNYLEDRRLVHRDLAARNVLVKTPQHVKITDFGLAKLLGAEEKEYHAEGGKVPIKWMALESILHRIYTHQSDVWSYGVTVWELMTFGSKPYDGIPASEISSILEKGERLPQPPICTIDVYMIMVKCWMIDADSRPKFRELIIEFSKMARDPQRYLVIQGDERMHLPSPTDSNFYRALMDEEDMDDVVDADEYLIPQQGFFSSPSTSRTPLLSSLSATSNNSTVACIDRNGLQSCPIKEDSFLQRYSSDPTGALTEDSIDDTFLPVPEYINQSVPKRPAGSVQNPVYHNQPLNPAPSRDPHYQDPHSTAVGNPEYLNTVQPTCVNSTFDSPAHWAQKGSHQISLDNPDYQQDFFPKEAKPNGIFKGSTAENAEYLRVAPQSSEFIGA

[8] = target: T2, Ephrin type-B receptor 6 (Homo sapiens) (UniProt O15197); assay: Selectivity interaction (KinomeScan (DiscoverX)) EUB0001619a EPHB6; settings: at 1 µM
T2 sequence (whole entry): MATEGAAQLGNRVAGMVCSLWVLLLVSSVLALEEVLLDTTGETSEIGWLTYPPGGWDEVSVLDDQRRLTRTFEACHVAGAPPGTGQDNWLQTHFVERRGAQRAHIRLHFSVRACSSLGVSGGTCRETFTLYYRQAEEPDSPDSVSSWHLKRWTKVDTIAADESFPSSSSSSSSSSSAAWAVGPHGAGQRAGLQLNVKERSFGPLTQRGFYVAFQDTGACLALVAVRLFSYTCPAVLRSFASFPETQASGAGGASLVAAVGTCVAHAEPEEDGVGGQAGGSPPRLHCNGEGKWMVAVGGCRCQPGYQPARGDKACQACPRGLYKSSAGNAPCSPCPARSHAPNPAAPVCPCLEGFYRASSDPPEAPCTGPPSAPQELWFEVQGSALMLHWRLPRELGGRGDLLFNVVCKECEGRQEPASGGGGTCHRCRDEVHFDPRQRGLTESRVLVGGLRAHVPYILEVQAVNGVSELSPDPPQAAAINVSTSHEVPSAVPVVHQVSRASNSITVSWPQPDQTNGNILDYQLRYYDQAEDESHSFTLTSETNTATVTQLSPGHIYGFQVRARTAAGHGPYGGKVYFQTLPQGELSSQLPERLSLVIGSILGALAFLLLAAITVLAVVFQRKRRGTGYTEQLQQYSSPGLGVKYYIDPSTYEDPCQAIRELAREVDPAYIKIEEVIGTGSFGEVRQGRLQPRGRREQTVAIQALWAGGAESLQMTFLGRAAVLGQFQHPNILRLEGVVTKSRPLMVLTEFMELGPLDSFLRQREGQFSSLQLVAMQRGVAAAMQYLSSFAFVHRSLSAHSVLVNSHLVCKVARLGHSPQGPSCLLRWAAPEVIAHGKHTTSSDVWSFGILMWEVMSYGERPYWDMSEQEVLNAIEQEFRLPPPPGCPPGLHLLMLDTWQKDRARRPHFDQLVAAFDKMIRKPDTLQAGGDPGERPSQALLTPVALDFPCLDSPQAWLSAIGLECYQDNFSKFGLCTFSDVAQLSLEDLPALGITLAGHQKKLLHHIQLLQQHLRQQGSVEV

[9] = target: T3, Phosphatidylinositol 4,5-bisphosphate 3-kinase catalytic subunit delta isoform (Homo sapiens) (UniProt O00329); assay: Selectivity interaction (KinomeScan (DiscoverX)) EUB0000618a PIK3CD; settings: at 10 µM
T3 sequence (whole entry): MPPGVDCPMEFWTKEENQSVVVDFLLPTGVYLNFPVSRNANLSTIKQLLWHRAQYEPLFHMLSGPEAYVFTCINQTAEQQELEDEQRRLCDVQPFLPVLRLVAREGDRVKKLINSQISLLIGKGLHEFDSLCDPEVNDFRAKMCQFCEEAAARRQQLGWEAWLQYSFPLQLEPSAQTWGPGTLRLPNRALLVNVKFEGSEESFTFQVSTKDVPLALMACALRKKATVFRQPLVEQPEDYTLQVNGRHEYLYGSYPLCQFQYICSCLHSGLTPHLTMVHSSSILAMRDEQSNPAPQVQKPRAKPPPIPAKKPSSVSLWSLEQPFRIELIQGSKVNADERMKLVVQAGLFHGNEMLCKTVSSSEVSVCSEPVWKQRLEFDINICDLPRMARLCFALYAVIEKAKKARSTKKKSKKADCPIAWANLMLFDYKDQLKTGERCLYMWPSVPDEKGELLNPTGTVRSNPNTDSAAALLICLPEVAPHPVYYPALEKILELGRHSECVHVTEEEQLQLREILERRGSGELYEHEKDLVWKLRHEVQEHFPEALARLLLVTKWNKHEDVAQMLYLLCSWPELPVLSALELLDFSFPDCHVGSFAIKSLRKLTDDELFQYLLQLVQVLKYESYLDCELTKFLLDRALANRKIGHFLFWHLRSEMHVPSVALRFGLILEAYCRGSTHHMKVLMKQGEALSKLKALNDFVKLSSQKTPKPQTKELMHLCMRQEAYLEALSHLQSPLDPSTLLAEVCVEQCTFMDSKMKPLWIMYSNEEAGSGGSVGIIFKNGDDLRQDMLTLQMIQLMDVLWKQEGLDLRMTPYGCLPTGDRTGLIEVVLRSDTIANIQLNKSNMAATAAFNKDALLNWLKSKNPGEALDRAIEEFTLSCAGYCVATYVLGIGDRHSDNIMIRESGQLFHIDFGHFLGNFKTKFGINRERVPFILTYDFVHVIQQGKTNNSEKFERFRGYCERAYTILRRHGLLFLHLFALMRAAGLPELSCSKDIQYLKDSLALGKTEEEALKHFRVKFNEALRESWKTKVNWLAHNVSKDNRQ

[10] = target: Serine/threonine-protein kinase Nek7 (Homo sapiens) (UniProt Q8TDX7); assay: Selectivity interaction (KinomeScan (DiscoverX)) EUB0000666a NEK7; settings: at 10 µM
Serine/threonine-protein kinase Nek7 (Homo sapiens), sequence (Q8TDX7 whole entry, looked up): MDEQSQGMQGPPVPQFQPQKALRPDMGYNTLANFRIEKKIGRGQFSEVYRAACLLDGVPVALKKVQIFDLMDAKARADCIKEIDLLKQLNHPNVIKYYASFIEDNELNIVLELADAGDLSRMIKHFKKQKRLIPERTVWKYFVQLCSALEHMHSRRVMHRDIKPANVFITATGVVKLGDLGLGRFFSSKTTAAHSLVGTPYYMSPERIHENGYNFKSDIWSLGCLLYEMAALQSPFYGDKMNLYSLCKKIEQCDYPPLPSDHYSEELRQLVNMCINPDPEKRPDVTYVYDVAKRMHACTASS

Compound `COc1cc(Nc2nc(C)cc(-c3cnn4nc(OC)ccc34)n2)cc(C(F)(F)F)c1` has a % of control [1] of 100%.

`Cn1cc(-n2cnc3c(NCc4nc5cc(Cl)c(Cl)cc5[nH]4)nc(N4CCOCC4)nc32)cn1` was tested, and the % of control [2] was 11.7%.

`C=CC(=O)Nc1cc(-n2c(=O)ccc3cnc4ccc(-c5ccc(NS(C)(=O)=O)cc5)cc4c32)ccc1C` showed a % of control ([3]; at 1 µM) of 88%, a % of control ([3]; at 10 µM) of 96% and a % of control ([4]; at 1 µM) of 79%. The % of control ([4]; at 10 µM) was 100%, the % of control ([5]; at 1 µM) was 85% and the % of control ([5]; at 10 µM) was 100%. The % of control ([6]; at 1 µM) was 11%, the % of control ([6]; at 10 µM) was 74% and the % of control [7] was 75%.

Compound `N#Cc1cccc(-c2c[nH]c3ncnc(N4CCOCC4)c23)c1` has a % of control [8] of 86%.

`O[C@H]1CC[C@H](Nc2ncc3nc(Nc4c(F)cc(F)cc4F)n([C@H]4CCOC4)c3n2)CC1` was tested, and the % of control [9] was 96%.

Compound `O=C(NOC[C@H](O)CO)c1ccc(F)c(F)c1Nc1ccc(I)cc1F` has a % of control [10] of 95%.
